Patent US10202411B2, “3′-substituted methyl or alkynyl nucleosides nucleotides for the treatment of HCV” (priority 2014, dated 2019)
Read-outs that look alike come from different tables or passages of the source.

What was measured:
[1] = Pharmacokinetics of liver triphosphate following a single oral dose in CD-1 mice; format: in vivo; conditions: CD-1 male mice; for Ms Liver TP AUC: integrated concentration; for Ms Liver TP Cmax: single point concentration
Procedure: A single oral dose of Compound 1 at 10 mg/kg in PEG 200 (dose volume 5 mL/kg) was administered to nine CD-1 male mice. Five untreated animals were used for the collection of control liver. Liver samples were collected from three animals per time point at 4, 12 and 24 hours post dose. Liver specimens were collected from all animals immediately after the incision. Freezing forceps stored in liquid nitrogen were used to freeze the liver before excision.
Liver samples were analyzed for the active species nucleoside triphosphate by LC-MS/MS. The triphosphate levels were assayed by homogenizing (on ice) a known weight of mouse liver with 4× volume of 0.95 M trichloroacetic acid (TCA). Internal standard solution was added to the homogenate followed by neutralization with 20% ammonium hydroxide solution and addition of 500 μL 1% formic acid. The tissue samples were extracted by weak anion exchange solid phase extraction (SPE). Post extraction, the eluates were evaporated under nitrogen, followed by reconstitution before injection onto the LC-MS/MS system. The samples were chromatographed on a Luna NH2 column using a gradient system of ammonium acetate (1 mM to 20 mM and pH 8.0 to pH 10.0) in water and acetonitrile (70:30). The analyte was detected and quantified by tandem mass spectrometry in positive ion mode on an API4000 equipped with a Turbo Ionspray® interface.

[2] = system: HCV genotype 1b replicon; assay: HCV replicon assay (Zluc luciferase reporter); format: cell-based
Procedure: Huh-7-derived cell line (Zluc) that harbors an HCV genotype 1b replicon and a luciferase reporter gene was grown in Dulbecco's Modified Eagle Medium (DMEM) supplemented with 10% fetal bovine serum, 2 mM GlutaMAX, 1% MEM nonessential amino acids, 100 IU/mL penicillin, 100 μg/mL streptomycin, and 0.5 mg/mL Geneticin® (G418). For dose response testing the cells were seeded in 96-well plates at 7.5×10^3 cells per well in a volume of 50 μL, and incubated at 37° C./5% CO2. Drug solutions were made up freshly in Huh-7 media as 2× stocks. Ten additional 5-fold dilutions were prepared from these stocks in DMEM without G418. At least three hours after Zluc cells were seeded, drug treatment was initiated by adding 50 μL of drug dilutions to the plates in duplicate. Final concentrations of drug ranged from 100 μM to 0.0000512 μM. Cells were then incubated at 37° C./5% CO2. Alternatively, compounds were tested at two concentrations (1 μM and 10 μM). […] After 72 hours of incubation, the inhibition of HCV replication was measured by quantification of photons emitted after mono-oxygenation of 5′-fluoroluciferin to oxyfluoroluciferin by firefly luciferase. For this, media was removed from the plates via gentle tapping. Fifty microliters of ONE-glo luciferase assay reagent was added to each well. The plates were shaken gently for 3 min at room temperature and luminescence was measured on a Victor^3 V 1420 multilabel counter (Perkin Elmer) with a 1 second read time using a 700 nm cut-off filter. The EC50 values were calculated from dose response curves from the resulting best-fit equations determined by Microsoft Excel and XLfit 4.1 software. When screening at two fixed concentrations, the results were expressed as % inhibition at 1 μM and 10 μM.

[3] = system: Zluc cells; assay: Cytotoxicity evaluation, CellTiter-Blue Cell Viability Assay; conditions: read-out: HCV Replicon CC50; Zluc cells, CellTiter-Blue cell viability
[4] = target: wild-type HCV genotype 1b NS5B protein (Hepatitis C virus genotype 1b (isolate Con1) (HCV), UniProt Q9WMX2); assay: HCV polymerase enzyme assay, wild-type; format: biochemical; conditions: nucleoside triphosphate form, recombinant HCV genotype 1b NS5B
Description: (§1) Test compounds in the form of nucleoside triphosphates were examined for inhibitory activity against purified HCV polymerase in a standard assay. Bacterial expression constructs encoding the approximately 65 kDa HCV genotype 1b NS5B protein were used to generate recombinant HCV polymerases (with a deletion of the 21 carboxy terminal amino acids). Both the wild-type genotype 1b protein and protein containing the S282T mutation were expressed and purified for use in the enzymatic activity assay.
(§2) The enzymatic activity assay measured the inhibitory effect of increasing concentrations of test compound on the incorporation of α-[^33P]-labeled nucleotide into trichloroacetic acid-precipitable material. Recombinant polymerase and synthetic RNA template were combined in reaction buffer containing ribonucleoside triphosphates, α-[^33P]-labeled nucleotide and eight concentrations of test compound in three-fold dilutions. Reactions were incubated for two hours at 30° C.
(§3) Reactions were terminated by the addition of ice-cold trichloroacetic acid and sodium pyrophosphate to promote precipitation of newly-synthesized ribonucleic acid. Precipitable material from the reactions was collected by filtration onto 96-well filter plates, washed extensively with water, and quantified by liquid scintillation.
(§4) The inhibitory activity of test compounds was determined by fitting results to dose-response curves using XLfit software.

[5] = target: HCV genotype 1b NS5B protein containing the S282T mutation (Hepatitis C virus genotype 1b (isolate Con1) (HCV), UniProt Q9WMX2, S2701T); assay: HCV polymerase enzyme assay, S282T mutant; format: biochemical; conditions: nucleoside triphosphate form, recombinant HCV genotype 1b NS5B
Description: as §1
as §2, with “Reactions were incubated for two hours at 30° C.” left out
as §3, §4

[6] = in vitro; conditions: human
[7] = Huh-7-derived Zluc cells, genotype 1b replicon, luciferase, 72 hours; read-out: HCV Replicon EC50
[8] = Hepatitis C virus; Huh-7-derived Zluc cells, genotype 1b replicon, luciferase, 72 hours; read-out: HCV Replicon EC50

| SMILES | EC50 [2, 7] | CC50 [3] | EC50 [2, 8] | CC50 [6] | further results |
| --- | --- | --- | --- | --- | --- |
| CCOc1nc(N)nc2c1ncn2[C@@H]1O[C@H](COP(=O)(N[C@H](C)C(=O)OC(C)C)Oc2ccccc2)[C@@H](CF)[C@H]1O (single isomer, unassigned) [Compound 125a Diastereomer 2] | > 10 µM | > 50 µM |  |  | Ms Liver TP AUC [1]: +++ (500 <+++ ≤1500); Ms Liver TP Cmax [1]: +++ (50 < +++ ≤100) |
| Nc1nc2c(ncn2[C@@H]2O[C@H](CO)[C@@H](CO)[C@H]2O)c(=O)[nH]1 [Compound 208] | > 10 µM | > 50 µM |  |  |  |
| CC(C)OP1(=O)OC[C@H]2[C@@H](O)[C@H](n3ccc(=O)[nH]c3=O)O[C@@H]2CO1 (single isomer, unassigned) [Compound 108 (Diastereomer 2)] | > 10 µM | > 50 µM |  |  |  |
| C[C@@H](NP(=O)(OC[C@H]1O[C@@H](n2cnc3c(=O)[nH]c(N)nc32)[C@H](O)[C@@H]1CF)Oc1ccccc1)C(=O)OC1CCCC1 (single isomer, unassigned) [Compound 124a Diastereomer 2] | > 10 µM | > 50 µM |  |  |  |
| Nc1nc2c(ncn2[C@@H]2O[C@H](COP(=O)(O)OP(=O)(O)OP(=O)(O)O)[C@@H](CO)[C@H]2O)c(=O)[nH]1 [Compound 308] |  |  |  |  | IC50 [4]: < 0.25 µM; IC50 [5]: < 0.25 µM |
| CC(C)OC(=O)[C@@H](C)NP(=S)(OC[C@H]1O[C@@H](n2ccc(=O)[nH]c2=O)[C@H](O)[C@@H]1CO)Oc1ccccc1 (single isomer, unassigned) [Compound 122a Diastereomer 2] |  | > 50 µM |  |  | EC50 ([2]; read-out: HCV Replicon EC50; Huh-7-derived Zluc cells, genotype 1b replicon, luciferase, 72 hours): > 10 µM |
| CC(C)OC(=O)C(C)NP(=O)(NC(C)C(=O)OC(C)C)OC[C@H]1O[C@@H](n2ccc(=O)[nH]c2=O)[C@H](O)[C@@H]1CO (some centres unmarked) [Compound 116] | > 10 µM | > 50 µM |  |  |  |
| Nc1ncnc2c1ncn2[C@@H]1O[C@H](COP(=O)(O)OP(=O)(O)OP(=O)(O)O)[C@@H](CF)[C@H]1O [Compound 326] |  |  |  |  | IC50 [4]: 1 to 10 µM |
| CC(C)OC(=O)[C@@H](C)NP1(=O)OC[C@H]2[C@@H](O)[C@H](n3ccc(=O)[nH]c3=O)O[C@@H]2CO1 (single isomer, unassigned) [Compound 110a (Diastereomer 2)] | > 10 µM | > 50 µM |  |  |  |
| O=c1ccn([C@@H]2O[C@H](CO)[C@@H](CO)[C@H]2O)c(=O)[nH]1 [Compound 205] |  |  | > 10 µM | > 50 µM |  |
| Nc1ncnc2c1ncn2[C@@H]1O[C@H](COP(=O)(O)OP(=O)(O)OP(=O)(O)O)[C@@H](CO)[C@H]1O [Compound 307] |  |  |  |  | IC50 [4]: 0.25 to 1 µM |
| Nc1ccn([C@@H]2O[C@H](CO)[C@@H](CO)[C@H]2O)c(=O)n1 [Compound 206] |  |  | > 10 µM | > 50 µM |  |
| CC(C)(CO)C(=O)SCCO[PH](=O)OC[C@H]1O[C@@H](n2ccc(=O)[nH]c2=O)[C@H](O)[C@@H]1CO (mixture of isomers) [Compound 107 (Mixture of diastereomers)] |  |  | > 10 µM | > 50 µM |  |
| CCOC(=O)OC(C)OP(=O)(N[C@H](C(=O)OC)C(C)C)OC[C@H]1O[C@@H](n2cnc3c(OCC)nc(N)nc32)[C@H](O)[C@@H]1CF (mixture of isomers) [Compound 128a Mixture of diastereomers] |  |  | > 10 µM | > 50 µM |  |
| CC(C)OC(=O)[C@H](C)NP(=O)(OCCSC(=O)C(C)(C)C)OC[C@H]1O[C@@H](n2ccc(N)nc2=O)[C@H](O)[C@@H]1CO (single isomer, unassigned) [Compound 106b (Mixture of diastereomers)] | > 10 µM | > 50 µM |  |  |  |
| C[C@@H](NP1(=O)OC[C@H]2[C@@H](O)[C@H](n3ccc(=O)[nH]c3=O)O[C@@H]2CO1)C(=O)OCc1ccccc1 (single isomer, unassigned) [Compound 120a (Diastereomer 1)] |  |  | > 10 µM | > 50 µM |  |
| O=c1ccn([C@@H]2O[C@H](CO)[C@@H](CF)[C@H]2O)c(=O)[nH]1 [Compound 202] |  |  | > 10 µM | > 50 µM |  |
| CC(=O)OC[C@H]1[C@@H](OC(C)=O)[C@H](n2ccc(=O)[nH]c2=O)O[C@@H]1CO [Compound 212] |  |  | > 10 µM | > 50 µM |  |
| CCOc1nc(N)nc2c1ncn2[C@@H]1O[C@H](CO)[C@@H](CO)[C@H]1O [Compound 227] |  |  | > 10 µM | > 50 µM |  |
| Nc1ccn([C@@H]2O[C@H](CO)[C@@H](CF)[C@H]2O)c(=O)n1 [Compound 204] |  |  | > 10 µM | > 50 µM |  |
| C[C@@H](NP(=O)(OC[C@H]1O[C@@H](n2cnc3c(=O)[nH]c(N)nc32)[C@H](O)[C@@H]1CF)Oc1ccccc1)C(=O)OC1CCCC1 (single isomer, unassigned) [Compound 124a Diastereomer 1] |  |  | > 10 µM | > 50 µM |  |
| CCOc1nc(N)nc2c1ncn2[C@@H]1O[C@H](COP(=O)(N[C@H](C)C(=O)OC(C)C)Oc2ccccc2)[C@@H](CF)[C@H]1O (single isomer, unassigned) [Compound 125a Diastereomer 1] |  |  | > 10 µM | > 50 µM | Ms Liver TP AUC [1]: +++ (500 <+++ ≤1500); Ms Liver TP Cmax [1]: +++ (50 < +++ ≤100) |
| Nc1nc2c(ncn2[C@@H]2O[C@H](COP(=O)(O)OP(=O)(O)OP(=O)(O)O)[C@@H](CF)[C@H]2O)c(=O)[nH]1 [Compound 327] |  |  |  |  | IC50 [4]: < 0.25 µM; IC50 [5]: < 0.25 µM |
| Nc1ncnc2c1ncn2[C@@H]1O[C@H](CO)[C@@H](CF)[C@H]1O [Compound 225] |  |  | > 10 µM | > 50 µM |  |
| CC(C)(CO)C(=O)SCCOP1(=O)OC[C@H]2[C@@H](O)[C@H](n3ccc(=O)[nH]c3=O)O[C@@H]2CO1 (single isomer, unassigned) [Compound 109 (Diastereomer 1)] |  |  | > 10 µM | > 50 µM |  |
| CC(C)OC(=O)CCCOP1(=O)OC[C@H]2[C@@H](O)[C@H](n3ccc(=O)[nH]c3=O)O[C@@H]2CO1 (mixture of isomers) [Compound 112 (Mixture of diastereomers)] |  |  | > 10 µM | > 50 µM |  |
| C[C@@H](NP1(=O)OC[C@H]2[C@@H](O)[C@H](n3ccc(=O)[nH]c3=O)O[C@@H]2CO1)C(=O)OCc1ccccc1 (single isomer, unassigned) [Compound 120a (Diastereomer 2)] | > 10 µM | > 50 µM |  |  |  |
| C[C@@H](NP(=O)(OC[C@H]1O[C@@H](n2ccc(=O)[nH]c2=O)[C@H](O)[C@@H]1CO)Oc1ccccc1)C(=O)OCc1ccccc1 (single isomer, unassigned) [Compound 123a Diastereomer 2] | > 10 µM | > 50 µM |  |  |  |
| O=c1ccn([C@@H]2O[C@@H]3COP(=O)(O)OC[C@H]3[C@H]2O)c(=O)[nH]1 [Compound 118] |  |  | > 10 µM | > 50 µM |  |
| Nc1nc(SCCO)c2ncn([C@@H]3O[C@H](CO)[C@@H](CO)[C@H]3O)c2n1 [Compound 209] | > 10 µM | > 50 µM |  |  |  |
